Columns and labels:
[1] = C-13 NMR stability of the formaldehyde/sodium bisulfite/N,N-dimethylamine adduct in aqueous solution; assay type: physicochemical; conditions: room temperature; for Conversion of N,N-dimethyl adduct back to formaldehyde bisulfite adduct: 18 days
Method: In a small vial, 137 mg of formaldehyde sodium bisulfite (CAS 870-72-4) was combined with 10 mL of high purity water and 200 mg of N,N-dimethylamine and stirred at room temperature to mix. The resulting mixture was stored at room temperature.
Aliquots of the mixture was analysed by C-13 NMR spectral analysis 48 hours and 18 days following formation.

[2] = Stability of CropStar formulation and thiodicarb in presence of sodium bisulfite, Example 1; assay type: physicochemical
Method: Sodium bisulfite was added to CropStar® (150 g/L imidacloprid+450 g/L thiodicarb; Bayer CropScience) in various mole ratios to formaldehyde (0.5:1, 1:1, 2:1, and 5:1) with or without pH adjustment to pH 7. Efficacy of sodium bisulfite was compared to no safener (Sample Nos. 1 & 5), two comparative safeners (Safener 1 & Safener 2), and inoculum only (BIAGRO Liquido NG—liquid inoculant and BIAGRO 10 Plus—peat-based inoculant). Safener 1 was obtained from Novozymes and contains the following active ingredients: soybean oil (CAS #8001-22-7), hydrolysed starch syrups (CAS #8029-43-4), and yeast extract (CAS #8013-01-2). Safener 2 was provided by Biagro and contains the following active ingredients: yeast extract, K2HPO4, and milk powder.

## CN(C)CS(=O)(=O)O [N,N-dimethyl adduct (CAS 68507-34-6), 1-(dimethylamino)-methanesulfonic acid]
[1]
  Conversion of N,N-dimethyl adduct back to formaldehyde bisulfite adduct: approximately 3.5%
  Time for which adduct is stable / takes to reverse back to formaldehyde bisulfite adduct: > 18 days
[1]; listed as N,N-dimethylamine product
  Conversion of N,N-dimethyl adduct back to formaldehyde bisulfite adduct: 3.5%

## O=S([O-])O.[Na+] [sodium bisulfite]
[2]; 1:1 mole ratio of sodium bisulfite to formaldehyde in CropStar
  Degradation of thiodicarb: did not significantly degrade thiodicarb
[2]; sodium bisulfite added to CropStar
  Physical stability of the CropStar formulation: without affecting the physical stability of the formulation

Reference: US20200100497A1, “SAFENERS AND FORMULATIONS CONTAINING SAFENERS, BIOCIDES AND INOCULANTS” (Bayer CropScience LP, priority 2017, published 2020)
